Experimental data as given in US20120308554A1, “VEGF-D/VEGFR2/3-MEDIATED REGULATION OF DENDRITES” (UNIVERSITAT HEIDELBERG, priority 2011, published 2012).
Like-named read-outs stand apart in the source and are kept apart here.

Assays:
Format in all cases: cell-based, mice
VEGFD = experiment: qRT-PCR analysis of VEGFD expression in hippocampal neurons
Description: Total RNA was isolated at DIV10 to DIV13 from hippocampal primary neuron cultures or isolated brain tissues with Rneasy Mini Kit (Qiagen, Hilden, Germany) including an optional Dnase I treatment at room temperature for 15 min according to manufacturer's instructions (Qiagen). 1.2 μg of extracted RNA was reverse transcribed into first strand cDNA using High Capacity cDNA Reverse Transcription kit (Applied Biosystems, Foster City, Calif.).
Quantitative reverse transcriptase PCR (qRT-PCR) was done on an ABI7300 thermal cycler using Universal qRT-PCR master mix with TaqMan Gene Expression Assays for the indicated genes (Applied Biosystems). The following TaqMan Gene Expression Assays were used in this study: Gusb (Mm00446953_m1), cFos (Mm00487425_m1), VEGFD (Mm00438965_m1), VEGFC (Mm01202432_m1), VEGF (Mm01281449_m1), VEGFR3 (Mm01292618_m1), beta-actin (Mm00607939_s1), beta-2 microglobulin (Mm00437762_m1), CBP (Mm01342435_m1), p38 MAPK alpha (Mm00442497_m1), p38 MAPK beta (Mm00440955_m1). Expression of target genes was normalized against the expression of Gusb as endogenous control gene. Data were derived from at least 5 independent experiments.

hippocampal neurons = experiment: Morphometric analyses (total dendritic length, Sholl analysis, spine density) of cultured hippocampal neurons; settings: for total dendritic length and dendritic complexity (Sholl analysis): neurons expressing the construct versus control constructs; for rescue of reduction in dendrite length and complexity caused by CaMBP4 or CaMKIVK75E: recombinant factors 100 ng/ml for 3 days, or VEGFD-HA expression
Description: Hippocampal neurons from newborn C57BL/6 mice were cultured as known in the art. Experiments were done after a culturing period of 10 to 14 days in vitro (DIV). DNA transfection was done on DIV8 using Lipofectamine 2000 (Invitrogen, San Diego, Calif.). For the studies on dendrite morphology, neurons were analyzed 4-5 days after transfection.
For 3D Sholl Analysis, total dendritic length and spine morphology were calculated using Object-Image freeware software with a specific set of macros (written by Dr. E. Ruthazer, McGill University, Quebec). Briefly, a z-Stack acquisition was imported, calibrated in Object-Image and manually traced. Total dendritic length was then computed. For Sholl analysis, the shell interval was set at 5 μm. All analyses were performed blind. In all in vitro experiments, for each condition, a minimum of 12 neurons from three independent preparations was analyzed. For the Golgi staining quantifications of 20 neurons for each condition from 4 different injected animals per viral construct were traced and analyzed.
Hippocampal neurons were fixed with 4% paraformaldehyde at room temperature for 20 min. For immunostaining, primary and secondary antibodies were applied in GDB buffer (30 mM phosphate buffer [pH7.4] containing 0.2% gelatin, 0.5% Triton X-100, and 0.9 M NaCl). For the morphometric analyses, fluorescence images were acquired using a confocal laser-scanning microscope TCS SP2 (Leica, Mannheim, Germany) equipped with an inverted fluorescence microscope DM IRE2 (Leica) and Leica confocal scan software. All images were obtained with sequential acquisition setting at a resolution of 1024×1024 pixels. Each image was a z series projection of images taken at 1 μm intervals.

[1] = system: cultured hippocampal neurons; experiment: Whole-cell patch clamp recordings of cultured hippocampal neurons
From the text: Whole-cell patch clamp recordings were made at room temperature from cultured hippocampal neurons plated on coverslips secured with a platinum ring in a recording chamber (Open access chamber-1, Science Products GmbH, Hofheim, Germany) mounted on a fixed-stage upright microscope (BX51WI, Olympus, Hamburg, Germany). Differential interference contrast optics, infrared illumination and a CCD camera (PCO, Visitron Systems, Puchheim, Germany) connected to a contrast enhancement unit (Argus, Hamamatsu, Herrsching am Ammersee, Germany) were used to view neurons on a video monitor. Recordings were made with a Multiclamp 700A amplifier, digitized through a Digidata 1322A A/D converter and acquired using pClamp software (Molecular Devices, CA, USA). All membrane potentials have been corrected for the calculated junction potential of −11 mV (JPCalc program by Dr. Peter H. Barry). mEPSCs and whole-cell AMPA (10 μM, 6 ml/min, Biotrend) responses were recorded as known in the art except for the solutions and that a holding potential of −71 mV was used and both TTX (1 μM, Biotrend, Cologne, Germany) and gabazine (5 μM, Biotrend) were included in the ACSF. TTX was applied before gabazine to prevent the induction of action potential bursting. Access (range: 7-18 MU) and membrane resistance (see Table 1) were monitored before and after mEPSC recordings and data was rejected if changes greater than 20% occurred.
Patch electrodes (3-4 MU) were made from borosilicate glass (1.5 mm, WPI, Sarasota, Fla., USA) and filled with intracellular solution (containing in mM: KCH3SO4, 145; NaCl, 8; HEPES, 10; K2-phosphocreatine, 10; Mgt-ATP, 4; Na3-GTP, 0.3; pH 7.35 with KOH). The extracellular solution was an artificial cerebrospinal fluid (ACSF, in mM: NaCl, 125; KCl, 3.5; MgCl2, 1.3; NaH2PO4, 1.2; CaCl2, 2.4; glucose, 25; NaHCO3, 26; gassed with 95% O2 and 5% CO2).

[2] = system: VEGFD, VEGF, VEGFC and VEGFR3; experiment: qRT-PCR analysis of shRNA knock-down of VEGF family members; settings: hippocampal neurons infected with rAAV
Description: Total RNA was isolated at DIV10 to DIV13 from hippocampal primary neuron cultures or isolated brain tissues with Rneasy Mini Kit (Qiagen, Hilden, Germany) including an optional Dnase I treatment at room temperature for 15 min according to manufacturer's instructions (Qiagen). 1.2 μg of extracted RNA was reverse transcribed into first strand cDNA using High Capacity cDNA Reverse Transcription kit (Applied Biosystems, Foster City, Calif.). Quantitative reverse transcriptase PCR (qRT-PCR) was done on an ABI7300 thermal cycler using Universal qRT-PCR master mix with TaqMan Gene Expression Assays for the indicated genes (Applied Biosystems). The following TaqMan Gene Expression Assays were used in this study: Gusb (Mm00446953_m1), cFos (Mm00487425_m1), VEGFD (Mm00438965_m1), VEGFC (Mm01202432_m1), VEGF (Mm01281449_m1), VEGFR3 (Mm01292618_m1), beta-actin (Mm00607939_s1), beta-2 microglobulin (Mm00437762_m1), CBP (Mm01342435_m1), p38 MAPK alpha (Mm00442497_m1), p38 MAPK beta (Mm00440955_m1). Expression of target genes was normalized against the expression of Gusb as endogenous control gene. Data were derived from at least 5 independent experiments. For expression of shRNAs, an rAAV vector containing the U6 promoter for shRNA expression and a CaMKII promoter driving mCherry expression was used. Three different sequences were obtained from Open Biosystems ([…] 2 and […] 3), cloned and tested for silencing efficiency. […] As control, a scramble version of this sequence ([…] ID NO: 2) and the vector carrying only the mCherry ([…]) were used. Shp38alpha [NT] ID NO: 3), shp38beta [NT] ID NO: 4), […] ID NO: 5), […] ID NO: 6) and […] ID NO: 7; sequence obtained from Open Biosystems www.openbiosystems.com) were also cloned into the same vector. CBP expression level was knocked down using a pool of four short interfering RNAs (siRNAs) targeting mouse CBP (Accell siRNA SMARTpool; Thermo Scientific Dharmacon). The SMARTpool is a group of four siRNAs that have been screened to reduce a variety of potential off-target effects including the inclusion of miRNA (microRNA)-like seed motifs. Silencing of GAPDH was measured using Accell mouse GAPDH as a positive control, and as a negative control, a non-targeting Accell mouse siRNA pool was used. In addition, a fluorescently labeled non-targeting Accell mouse siRNA was also used to evaluate penetration efficiency in hippocampal neurons via immunocytochemistry. Briefly, 500 nM siRNAs were supplemented in the serum-free culturing medium at DIV8, and mRNA levels were analyzed at DIV13.

C[C@]12N[C@H](Cc3ccccc31)c1ccccc12 [MK801, reference compound]
VEGFD expression (qRT-PCR) (VEGFD): significantly reduced the expression of VEGFD mRNA

C[S+]([O-])c1ccc(-c2nc(-c3ccncc3)c(-c3ccc(F)cc3)[nH]2)cc1 (stereo not drawn) [SB203580, reference compound]
Sholl analysis, SB203580 alone (hippocampal neurons): showed no difference compared to the respective untreated controls
effect on rVEGFD-induced rescue of dendrite length and complexity (hippocampal neurons): severely compromised the ability of rVEGFD to rescue the impairment of dendrite length and complexity

shSCR: scramble version of the shVEGFD sequence (GTGCCAAGACGGGTAGTCA; SEQ ID NO: 2), control [reference compound]
AP induc thresh (current injection required to induce an action potential) ([1]; infected neurons): 116 ± 10 pA
AP thresh (membrane potential at which action potentials initiate) ([1]; infected neurons): −48.4 ± 1.0 mV
Cm (membrane capacitance) ([1]; infected neurons): 102.4 ± 4.4 pF
Rm (membrane resistance) ([1]; infected neurons): 275 ± 15 MΩ
Vrest (resting membrane potential) ([1]; infected neurons): −78.7 ± 1.7 mV
mEPSC τ decay ([1]; infected neurons): 5.70 ± 0.12 ms
mEPSC τ rise ([1]; infected neurons): 3.36 ± 0.07 ms
AP induc thresh (current injection required to induce an action potential) ([1]; transfected neurons): 125 ± 13 pA
AP thresh (membrane potential at which action potentials initiate) ([1]; transfected neurons): −44.1 ± 1.6 mV
Cm (membrane capacitance) ([1]; transfected neurons): 88.6 ± 5.5 pF
Rm (membrane resistance) ([1]; transfected neurons): 291 ± 32 MΩ
Vrest (resting membrane potential) ([1]; transfected neurons): −76.5 ± 2.3 mV
mEPSC τ decay ([1]; transfected neurons): 6.06 ± 0.07 ms
mEPSC τ rise ([1]; transfected neurons): 3.18 ± 0.14 ms
spine density (number of spines/20 μm) (hippocampal neurons; transfected hippocampal neurons): 6.17±0.56 spines/20 μm

shVEGF: shRNA specific for VEGF (ACCTCACCAAAGCCAGCAC; SEQ ID NO: 5) [reference compound]
total dendritic length and dendritic complexity (Sholl analysis) (hippocampal neurons): had no effect on dendrite length or complexity
mRNA levels of respective targets [2]: reduced mRNA levels of their respective targets

shVEGFC: shRNA specific for VEGFC (GTTCATTCCATTATTAGAC; SEQ ID NO: 6) [reference compound]
total dendritic length and dendritic complexity (Sholl analysis) (hippocampal neurons): had no effect on dendrite length or complexity
mRNA levels of respective targets [2]: reduced mRNA levels of their respective targets

shVEGFR3: shRNA specific for VEGFR3 (CCCAGTATTGTGTGGTACAAA; SEQ ID NO: 7)
total dendritic length and dendritic complexity (Sholl analysis) (hippocampal neurons): changes in the dendritic structure that were virtually identical to those obtained in hippocampal neurons transfected with pAAV-shVEGFD
mRNA levels of respective targets [2]: reduced mRNA levels of their respective targets

shp38α: shRNA specific for the alpha isoform of p38 MAPK (AAACACGAAAATGTGATTGGT; SEQ ID NO: 3) [reference compound]
effect on rVEGFD-induced rescue of dendrite length and complexity (hippocampal neurons; neurons expressing CaMBP4 (and CaMKIVK75E), rVEGFD 3 days): prevented the rVEGFD-induced rescue

B1: rVEGFC: recombinant mouse VEGFC (Biocat) (protein, UniProt P97953 108-223, looked up)
Vascular endothelial growth …: AHYNTEILKSIDNEWRKTQCMPREVCIDVGKEFGAATNTFFKPPCVSVYRCGGCCNSEGLQCMNTSTGYLSKTLFEITVPLSQGPKPVTISFANHTSCRCMSKLDVYRQVHSIIRR
rescue of reduction in dendrite length and complexity caused by CaMBP4 or CaMKIVK75E (hippocampal neurons): neither recombinant VEGF (rVEGF) nor recombinant VEGFC (rVEGFC) was able to rescue

B2: VEGFD-HA: HA-tagged VEGFD expressed from rAAV plasmid or rAAV (protein, UniProt P97946 94-210, looked up)
Vascular endothelial growth …: FAATFYDTETLKVIDEEWQRTQCSPRETCVEVASELGKTTNTFFKPPCVNVFRCGGCCNEEGVMCMNTSTSYISKQLFEISVPLTSVPELVPVKIANHTGCKCLPTGPRHPYSIIRR
modifications: HA tag
neuronal morphology (hippocampal neurons; neurons without nuclear calcium signaling blockade): no detectable effect on neuronal morphology
restoration of spine density in CaMBP4 or CaMKIVK75E expressing neurons (hippocampal neurons; rVEGFD 100 ng/ml 3 days or VEGFD-HA expression): failed to restore normal spine density
rescue of reduction in dendrite length and complexity caused by CaMBP4 or CaMKIVK75E (hippocampal neurons): rescued the reduction in dendrite length and complexity

B3: resiVEGFD-HA: HA-tagged VEGFD resistant to shVEGFD, expressed from plasmid (protein, UniProt P97946 94-210, looked up)
Vascular endothelial growth …: FAATFYDTETLKVIDEEWQRTQCSPRETCVEVASELGKTTNTFFKPPCVNVFRCGGCCNEEGVMCMNTSTSYISKQLFEISVPLTSVPELVPVKIANHTGCKCLPTGPRHPYSIIRR
modifications: HA tag; shRNA-resistant coding sequence
notes: HA-tagged VEGFD resistant to shVEGFD, expressed from plasmid
effect on reduction of dendrite length and complexity caused by shVEGFD (hippocampal neurons; pAAV-shVEGFD transfected neurons, rVEGFD 100 ng/ml 3 days or co-transfection): rescued the reduction of dendrite length and complexity
